According to patent publication US5739145A (priority 1993, dated 1998):
Counter-ions that a name gives are not always drawn.

Columns and labels:
[1] = system: rats (capsaicin-induced cough); assay: animal or person; format: in vivo; settings: Rattus norvegicus, ip, 0.5 h
mouse vas deferens = assay: Opioid activity test using extracted mouse vas deferens sample (inhibition of electrically stimulated contraction); format: cell-based, mouse (male ddy)
Procedure: (§1) Male ddy mice were provided for experimentation. Vas deferens extracted from the mice were suspended in a Magnus tube filled with a 37° C.-heated Krebes-Henseleit solution ([…], 4.7 mM KCl, 2.5 mM CaCl2, 1.1 mM KH2 PO4, 25 mM NaHCO3, 11 mM glucose) and aerated with 5% carbon dioxide and 95% oxygen. A 0.1 Hz, 5.0 mS electrical stimulus was applied via an annular platinum electrode. The tissue contraction was recorded on a polygraph using an isometric transducer.
(§2) Then, the sample was adequately washed with a nutrient solution, and when the contraction reaction stabilized, the μ-antagonist naloxone, the δ-antagonist NTI or the κ-antagonist norBNI was added thereto, and after about 20 minutes the test compound was once again added cumulatively. The Ke value was calculated from the difference in potency between the two, according to the following equation. Ke=[concentration of added antagonist]/(IC50 ratio -1) IC50 ratio=IC50 value in presence of antagonist/IC50 value in absence of antagonist

κ-receptors = molecular target: T1, κ-receptors (Mus musculus, UniProt P33534); assay: Antagonism by the κ-antagonist norBNI in extracted mouse vas deferens; format: cell-based; settings: Ke=[antagonist]/(IC50 ratio -1)
T1 construct: from tissue; host or cells: vas deferens of male ddy mice
Procedure: as §1, §2

[2] = system: guinea pigs (cough by mechanical airway stimulation); assay: Antitussive effect by guinea pig airway stimulation method; format: in vivo, guinea pig (male Hartley); settings: for ED50: Cavia porcellus, sc, guinea pig airway stimulation; for Number of animals exhibiting coughing/number of animals tested: guinea pig, s.c.
Procedure: A group of five male Hartley guinea pigs (5 weeks old) with a body weight of 330-380 g were used. They were fixed in the supine position under light anesthesia by intraperitoneal administration of 15 mg/kg of pentobarbital sodium, and the necks were cut open to expose the airways. A small hole was opened in each exposed airway, from which stimulating hair was inserted about 3 cm into the airway at a 30° angle to stimulate the wall of the airway, and the occurrence or lack of coughing was noted. […] The test compounds were subcutaneously administered, and the stimulation was performed twice at each point 15, 30, 60 and 120 minutes after administration, pronouncing effective those cases in which no coughing occurred either time.

μ-receptors = molecular target: T2, μ-receptors (Mus musculus, UniProt P42866); assay: Antagonism by the μ-antagonist naloxone in extracted mouse vas deferens; format: cell-based; settings: Ke=[antagonist]/(IC50 ratio -1)
T2 construct: from tissue; host or cells: vas deferens of male ddy mice
Procedure: as §1, §2

δ opioid receptor = molecular target: T3, δ opioid receptor (Mus musculus, UniProt P32300); assay: Antagonism by the δ-antagonist NTI in extracted mouse vas deferens; format: cell-based; settings: Ke=[antagonist]/(IC50 ratio -1)
T3 construct: from tissue; host or cells: vas deferens of male ddy mice
Procedure: as §1, §2

T1 sequence (P33534 whole entry): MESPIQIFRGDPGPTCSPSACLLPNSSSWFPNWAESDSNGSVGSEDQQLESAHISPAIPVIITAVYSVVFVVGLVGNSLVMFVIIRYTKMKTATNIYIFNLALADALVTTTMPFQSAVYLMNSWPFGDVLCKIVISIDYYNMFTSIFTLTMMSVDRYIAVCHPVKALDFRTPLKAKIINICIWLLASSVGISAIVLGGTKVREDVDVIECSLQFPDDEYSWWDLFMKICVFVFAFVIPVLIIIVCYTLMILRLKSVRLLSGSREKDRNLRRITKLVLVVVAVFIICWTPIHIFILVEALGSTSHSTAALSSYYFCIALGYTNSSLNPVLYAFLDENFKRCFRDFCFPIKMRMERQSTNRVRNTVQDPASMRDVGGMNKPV
T3 sequence (P32300 whole entry): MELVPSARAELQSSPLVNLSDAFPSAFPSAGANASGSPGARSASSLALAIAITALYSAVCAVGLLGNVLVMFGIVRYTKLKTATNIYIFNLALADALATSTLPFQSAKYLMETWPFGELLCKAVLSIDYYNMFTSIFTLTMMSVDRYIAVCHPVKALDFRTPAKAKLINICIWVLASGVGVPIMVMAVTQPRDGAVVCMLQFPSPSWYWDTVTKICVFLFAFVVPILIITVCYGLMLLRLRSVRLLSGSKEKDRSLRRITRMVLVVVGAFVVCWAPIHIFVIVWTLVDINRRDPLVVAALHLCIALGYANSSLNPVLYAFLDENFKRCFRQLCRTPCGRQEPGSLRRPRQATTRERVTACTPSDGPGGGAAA
T2 sequence (P42866 whole entry): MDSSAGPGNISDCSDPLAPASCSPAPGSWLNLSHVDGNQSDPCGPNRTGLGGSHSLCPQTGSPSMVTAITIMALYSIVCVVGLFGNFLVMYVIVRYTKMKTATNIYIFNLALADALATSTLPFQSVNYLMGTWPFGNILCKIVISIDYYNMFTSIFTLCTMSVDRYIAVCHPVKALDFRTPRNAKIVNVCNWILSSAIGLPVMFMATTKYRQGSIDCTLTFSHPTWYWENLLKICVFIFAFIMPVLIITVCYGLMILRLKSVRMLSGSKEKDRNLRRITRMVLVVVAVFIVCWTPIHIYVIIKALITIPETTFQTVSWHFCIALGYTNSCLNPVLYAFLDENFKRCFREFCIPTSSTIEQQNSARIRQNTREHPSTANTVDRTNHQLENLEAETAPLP

Compound | ED50 [1] [µg/kg] | IC50 (mouse vas deferens) [nM] | Ke norBNI (κ-receptors) [nM] | ED50 [2] [µg/kg] | Number of animals exhibiting coughing/number of animals tested ([2]; dosage 1 μg/kg) | Number of animals exhibiting coughing/number of animals tested ([2]; dosage 3 μg/kg) | Number of animals exhibiting coughing/number of animals tested ([2]; dosage 30 μg/kg) | Ke Naloxone (μ-receptors) [nM] | Ke NTI (δ opioid receptor) [nM]
CN(CCc1ccc(Cl)c(Cl)c1)[C@@H]1CC[C@@]2(O)[C@H]3Cc4ccc(O)c5c4[C@@]2(CCN3CC2CC2)[C@H]1O5 [Compound 7, 17-cyclopropylmethyl-4,5α-epoxy-3,14β-dihydroxy-6β-[N-methyl-N-2-(3,4-dichlorophenyl)ethylamino]morphinan.1.9 HCl] | 437 | – | – | – | – | – | – | – | –
CN(C(=O)/C=C/c1ccoc1)[C@@H]1CC[C@@]2(O)[C@H]3Cc4ccc(O)c5c4[C@@]2(CCN3CC2CC2)[C@H]1O5 [Compound 5, 17-cyclopropylmethyl-4,5α-epoxy-3,14β-dihydroxy-6β-[N-methyl-trans-3-(3-furyl)acrylamido] morphinan.HCl] | 4.3 | 0.42 | 0.164 | 3.7 | 2/5 | 3/5 | 5/5 | – | –
COc1ccc2c3c1O[C@H]1[C@H](N(C)C(=O)C#Cc4cccc(C)c4)CC[C@@]4(O)[C@@H](C2)N(CC2CC2)CC[C@]314 [Compound 13, 17-cyclopropylmethyl-4,5α-epoxy-3-methoxy-14β-hydroxy-6β-[N-methyl-3-(3-methylphenyl)propiolamido]morphinan.HCl] | 12.1 | – | – | – | – | – | – | – | –
Cc1cccc(C#CC(=O)N(C)[C@@H]2CC[C@@]3(O)[C@H]4Cc5ccc(O)c6c5[C@@]3(CCN4CC3CC3)[C@H]2O6)c1 [Compound 11, 17-cyclopropylmethyl-4,5α-epoxy-3,14β-dihydroxy-6β-[N-methyl-3-(3-methylphenyl)propiolamido]morphinan.HCl] | 13.5 | – | – | – | – | – | – | – | –
Cc1cccc(/C=C/C(=O)N(C)[C@@H]2CC[C@@]3(O)[C@H]4Cc5ccc(O)c6c5[C@@]3(CCN4CC3CC3)[C@H]2O6)c1 [Compound 6, 17-cyclopropylmethyl-4,5α-epoxy-3,14β-dihydroxy-6β-(N-methyl-3-methylcinnamamido)morphinan.HCl] | – | 0.32 | 1.95 | 12.5 | 1/5 | 1/5 | 4/5 | 1780 | 64.5
CN(C(=O)/C=C/c1cccc(C(F)(F)F)c1)[C@@H]1CC[C@@]2(O)[C@H]3Cc4ccc(O)c5c4[C@@]2(CCN3CC2CC2)[C@H]1O5 [Compound 4, 17-cyclopropylmethyl-4,5α-epoxy-3,14β-dihydroxy-6β-(N-methyl-3-trifluoromethylcinnamamido)morphinan.tartrate] | 107 | 0.468 | 3.20 | 2.6 | 1/5 | 3/5 | 5/5 | – | 291
O=C(CCc1ccccc1)O[C@H]1CC[C@@]2(O)[C@H]3Cc4ccc(O)c5c4[C@@]2(CCN3CC2CC2)[C@H]1O5 [Compound 9, 17-cyclopropylmethyl-4,5α-epoxy-3,14β-dihydroxy-6α-(3-phenylpropionyloxy)morphinan.tartrate] | 3300 | – | – | – | – | – | – | – | –
COc1ccc2c3c1O[C@H]1[C@H](N(C)C(=O)/C=C/c4ccoc4)CC[C@@]4(O)[C@@H](C2)N(CC2CC2)CC[C@]314 [Compound 12, 17-cyclopropylmethyl-4,5α-epoxy-3-methoxy-14β-hydroxy-6β-[N-methyl-trans-3-(3-furyl)acrylamido]morphinan.HCl] | 0.12 | – | – | – | – | – | – | – | –
CN(C(=O)OCc1ccccc1)[C@@H]1CC[C@@]2(O)[C@H]3Cc4ccc(O)c5c4[C@@]2(CCN3CC2CC2)[C@H]1O5 [Compound 8, 17-cyclopropylmethyl-4,5α-epoxy-3,14β-dihydroxy-6β-(N-methyl-benzyloxycarbamido)morphinan.HCl] | 1.79 | 0.42 | 1.00 | – | – | – | – | – | 532
CN(C(=O)/C=C/c1cccc(OC(F)(F)F)c1)[C@@H]1CC[C@@]2(O)[C@H]3Cc4ccc(O)c5c4[C@@]2(CCN3CC2CC2)[C@H]1O5 [Compound 10, 17-cyclopropylmethyl-4,5α-epoxy-3,14β-dihydroxy-6β-(N-methyl-3-trifluoromethoxycinnamamido)morphinan.tartrate] | 2.1 | – | 0.17 | – | – | – | – | 10.8 | 17.6
